# In patent publication US9532994B2, “Agents and methods for enhancing bone formation by oxysterols in combination with bone morphogenic proteins” (THE REGENTS OF THE UNIVERSITY OF CALIFORNIA, priority 2003, dated 2017):
# Tests used:
# [1] = test system: M2-10B4 mouse marrow stromal cell line; experiment: Matrix mineralization in M2 cells (von Kossa staining, 45Ca incorporation assay); type: cell-based; conditions: for inhibition of oxysterol-induced mineralization: with 22R+20S (2.5 μM each), 10 days, 45Ca incorporation (FIGS. 9B, 9F)
# Description: (§1) Cells: M2-10B4 mouse marrow stromal cell line obtained from American Type Culture Collection (ATCC, Rockville, Md., U.S.A.) was derived from bone marrow stromal cells of a (C57BL/6J×C3H/HeJ) F1 mouse, and support human and murine myelopoiesis in long-term cultures (as per ATCC) and have the ability to differentiate into osteoblastic and adipocytic cells. Unless specified, these cells were cultured in RPMI 1640 containing 10% heat-inactivated FBS, and supplemented with 1 mM sodium pyruvate, 100 U/ml penicillin, and 100 […] (all from Irvine Scientific).
# (§2) Von Kossa and oil red O staining—Matrix mineralization in cell monolayers was detected by silver nitrate staining as previously described. Oil red O staining for detection of adipocytes was performed as previously described.
# ^45Ca incorporation assay—Matrix mineralization in cell monolayers was quantified using the ^45Ca incorporation assay as previously described.
# M2 cells at confluence were treated in osteogenic medium with control vehicle or 5 μM oxysterols, alone or in combination as indicated. After 14 days, mineralization was identified by a von Kossa staining, which appears black. FIG. 3C is a depiction of von Kossa staining of M2 cells exposed to various conditions.
# M2 cells were treated with control vehicle (C) or a combination of 22R and 20S oxysterols at increasing concentrations. After 14 days, matrix mineralization in cultures was quantified using a ^45Ca incorporation assay. […] FIG. 3D is a bar graph depicting the effect of a combination of oxysterols at various doses on calcium incorporation in M2 cells.
# (§3) Next, a combination of 22R and 20S oxysterols (RS, 2.5 μM each) were added in the presence or absence of SC as indicated. After 3 days, ALP activity was measured as described earlier. […] (B) M2 cells were treated as described in (A) and after 10 days matrix mineralization in cultures was quantified by a ^45Ca incorporation assay as described earlier. Results from a representative of three experiments are shown, reported as the mean±SD of quadruplicate determinations, normalized to protein concentration. (C) M2 cells were pretreated with 20 μM SC for 4 hours, followed by the addition of RS in the presence or absence of SC as described above. After 8 days, total RNA was isolated and analyzed for osteocalcin (Osc) and 18S rRNA expression by Northern blotting as previously described. Data from densitometric analysis of the Northern blot is shown in (D) as the average of duplicate samples, normalized to 18S rRNA. (E) M2 cells at confluence were pretreated for 2 hours with control vehicle (C), or PLA2 inhibitors ACA (25 μM) and MCOCF3 (MC, 20 μM), in osteogenic medium. Next, a combination of 22R and 20S oxysterols (RS, 2.5 μM) was added in the presence or absence of the inhibitors as indicated. After 3 days, ALP activity was measured as previously described. Data from a representative of three experiments are shown, reported as the mean±SD of quadruplicate determinations, normalized to protein concentration (p<0.01 for RS vs. RS+ACA and RS+MC). (F) M2 cells were treated as described in (E). After 10 days, matrix mineralization in cultures was quantified using a ^45Ca incorporation assay as previously described. Results from a representative of three experiments are shown, reported as the mean of quadruplicate determinations±SD, normalized to protein concentration (p<0.01 for RS vs. RS+ACA and RS+MC).
# (A) M2 cells at confluence were pretreated for four hours with RPMI containing 1% FBS, followed by treatment with control vehicle or 5 μM 20S oxysterol for 1, 4, or 8 hours. Next total cell extracts were prepared and analyzed for levels of native or phosphorylated ERK (pERK) using specific antibodies as previously described.
# [2] = test system: M2-10B4 mouse marrow stromal cell line; experiment: Alkaline phosphatase (ALP) activity assay in M2 cells; type: cell-based; conditions: for inhibition of oxysterol-induced alkaline phosphatase activity: with 22R+20S (2.5 μM each), 3 days, SC 10 μM, ACA 25 μM, MC 20 μM (FIGS. 9A, 9E)
# Description: as §1
# Alkaline phosphatase activity assay: Colorimetric alkaline phosphatase (ALP) activity assay on whole cell extracts was performed as previously described. […]
# Test 2: M2 cells were grown in RPMI medium containing 10% fetal bovine serum (FBS). At confluence, the cells were treated in RPMI containing 5% FBS plus ascorbate at 50 μg/ml and β-glycerophosphate at 3 mM to induce osteoblastic differentiation. Adipogenic differentiation was induced by treating the cells in growth medium plus 10 ˜M troglitazone. A vehicle (C) or oxysterol treatment was applied to cells in a variety of doses (in μM): 20S-Hydroxycholesterol, 25-Hydroxycholesterol, 22R-Hydroxycholesterol; 22S-Hydroxycholesterol; 7-ketocholesterol. Cells were always treated at 90% confluence. After 4 days, alkaline phosphatase activity was determined in whole cell lysates and normalized to protein. Alternatively, MSC cultures were prepared and treated with oxysterols as described above. Cells were treated at 90% confluence with the combination of 22R-Hydroxycholesterol and 20S-Hydroxycholesterol, each at 5 μM, for 4 to 96 hours. The oxysterols where removed and fresh media without oxysterols was added for a total duration of 96 hours. Alkaline phosphatase activity was measured in whole cell extracts and normalized to protein.
# M2 cells were treated at 90% confluence with vehicle (C), or oxysterols 20S-Hydroxycholesterol or 22S-Hydroxycholesterol at (0.5 μM) or (1 μM), in the absence or presence of cytochrome P450 inhibitor (SKF525A 10 μM (+)). MSC cultures were also treated at 90% confluence with vehicle (C), or 20S-Hydroxycholesterol (2 μM), in the absence or presence of cytochrome P450 […] (Benzylimidazole 50 μM) or SKF525A (10 μM). After 4 days, alkaline phosphatase activity was measured in whole cell extracts and normalized to protein. […]
# [3] = test system: osteocalcin mRNA in M2 cells; experiment: Northern blotting for osteocalcin mRNA in M2 cells; type: cell-based, mouse; conditions: TO treatment, after 10 days
# Description: The extent of gene induction was determined by densitometry.
# After 4 and 8 days, total RNA from duplicate samples was isolated and analyzed for osteocalcin (Osc) and 28S rRNA expression by Northern blotting as described. FIG. 3E is a radiogram of Northern blotting for osteocalcin mRNA in M2 cells exposed to a control or combination of oxysterols for 4 or 8 days. FIG. 3F is a bar graph depicting the relative demsometric units of osteocalcin mRNA in M2 cells exposed to a control or combination of oxysterols for 4 or 8 days. Data from densitometric analysis of the Northern blot is shown in (F) as the average of duplicate samples, normalized to 28S rRNA.
# as §3, with “(E).” for “(E). After 10 days, matrix mineralization in cultures was quantified using a ^45Ca incorporation assay as previously described. Results from a representative of three experiments are shown, reported as the mean of quadruplicate determinations±SD, normalized to protein concentration (p<0.01 for RS vs. RS+ACA and RS+MC).”
# marrow stromal cells = experiment: Osteogenic activity/effects of oxysterol combinations in marrow stromal cells, readout not specified; type: cell-based, mouse; conditions: NS-398 at 20 μM, M2 cells
# M2 cells [4] = experiment: Non-toxic doses in M2 cell cultures; type: cell-based, mouse
# M2 cells [5] = experiment: Adipogenesis of M2 cells, oil Red O staining and adipocyte count; type: cell-based, mouse; conditions: 10 μM Tro, 10 μM oxysterols, alone or in combination, 10 days (FIG. 7)
# Description: as §2
# Test 1: M2 cells at 90% confluence were treated with vehicle (C), PPAR-γ activator, troglitazone 10 uM (Tro), alone or in combination with 10 μM oxysterols 20S-, 22R-, or 25S-hydroxycholesterol. After 8 days, adipocytes were identified by oil Red O staining and quantified by counting under a phase contrast microscope. FIG. 6A is a bar graph depicting the effect of oxysterols on reducing adipogenesis of MSC.
# Test 2: (A) M2 cells at confluence were treated in RPMI containing 10% FBS with control vehicle or 10 μM troglitazone (Tro) in the absence or presence of 10 μM 20S or 22S oxysterols. After 10 days, adipocytes were visualized by oil Red O staining and quantified by light microscopy, shown in (B). Data from a representative of four experiments are shown, reported as the mean SD of quadruplicate determinations (p<0.001 for Tro vs. Tro+20S and Tro+22S). (C) M2 cells were treated at confluence with 10 μM Tro, alone or in combination with 10 μM 20S oxysterol. After 10 days, total RNA was isolated and analyzed for lipoprotein lipase (LPL), adipocyte P2 gene (aP2) or 18S rRNA expression by Northern blotting as described (Ref). Data from densitometric analysis of the Northern blot is shown in (D) as the average of duplicate samples, normalized to 18S rRNA.
smiles,measurement,setting,value
"O=S(=O)(c1ccccc1)N(CC(F)(F)F)c1ccc(C(O)(C(F)(F)F)C(F)(F)F)cc1 [TO, TO-901317]",induction of mineralization,"[1]; TO treatment, after 10 days",did not induce
same,"osteoblastic differentiation (alkaline phosphatase activity), LXR ligands","[2]; 1-4 μM, 4 days (FIG. 8)",inhibited
same,inhibition of alkaline phosphatase activity,[2]; TO at 1-10 μM,dose-dependent inhibition
same,alkaline phosphatase activity,"[2]; ligands used at 10 μM, ±SD, control vehicle C: 18±2, p<0.01 for C vs. all ligands",3±0.5 activity units/mg protein
same,induction of osteocalcin gene expression,[3],did not induce
"CCCCC[C@H](O)/C=C/[C@H]1[C@H](O)CC(=O)[C@@H]1C/C=C\CCCC(=O)O [PGE2, prostaglandin E2]",reversal of effect of COX-1 inhibitor on oxysterol-induced alkaline phosphatase activity,"[2]; 1 μM PGE2, data not shown",reversed
CS(=O)(=O)Nc1ccc([N+](=O)[O-])cc1OC1CCCCC1 [NS-398],inhibition of osteogenic effects of oxysterol combination,marrow stromal cells,negligible inhibitory effects
same,highest non-toxic dose,M2 cells [4],20 µM
CCCCC/C=C\C/C=C\C/C=C\C/C=C\CCCC(=O)C(F)(F)F [AACOCF3],inhibition of oxysterol-induced mineralization,[1],inhibited
same,inhibition of oxysterol-induced alkaline phosphatase activity,[2],inhibited
CCCCCc1ccc(/C=C/C(=O)Nc2ccccc2C(=O)O)cc1 [ACA],inhibition of oxysterol-induced mineralization,[1],inhibited
same,inhibition of oxysterol-induced alkaline phosphatase activity,[2],inhibited
"CC(C)CCC[C@@H](C)[C@H]1CC[C@H]2[C@@H]3C(=O)C=C4C[C@@H](O)CC[C@]4(C)[C@H]3CC[C@]12C [7K, 7-ketocholesterol, reference compound]",induction of alkaline phosphatase activity,"[2]; 10 μM oxysterols, osteogenic medium, 3 days (FIG. 3A)",did not induce
same,adipogenesis induced by troglitazone,M2 cells [5],unable to inhibit
COc1cccc(-c2cc(=O)c3ccccc3o2)c1N [PD98059],inhibition of oxysterol-induced mineralization by ERK pathway inhibitor,"[1]; 20 μM PD with 22R+20S (5 μM each), 10 days (FIG. 10B)",inhibited
CCCC(C(=O)OCCN(CC)CC)(c1ccccc1)c1ccccc1.Cl [SKF525A],effect on osteogenic effects of the oxysterols (alkaline phosphatase activity),"[2]; SKF525A 10 μM with 20S or 22S at 0.5 or 1 μM, 4 days (FIG. 5A)",potentiated
CCCCC/C=C\C/C=C\C/C=C\C/C=C\CCCC(=O)O [arachidonic acid],reversal of effect of PLA2 inhibitors on oxysterol-induced alkaline phosphatase activity,"[2]; 25 μM arachidonic acid, data not shown",reversed
